In patent US20110300067A1, “METHODS FOR INCREASING EFFICACY OF RADIOIMMUNOTHERAPY OF MELANOMA” (priority 2008, published 2011):

How the values were obtained:
[1] = tested on: A2058 human melanoma; test: histology of A2058 tumors from DTIC-treated mice (melanin release); type: in vivo; conditions: 50 mg/kg IP for 5 days; H&E, iron stain, melanin bleach; FIG. 3
Experimental: Combination of chemotherapy and RIT. For combined chemotherapy with dacarbazine and RIT of A2058 melanoma-bearing nude mice, a preliminary experiment was performed which was aimed at determining the tolerability of dacarbazine by tumor-bearing mice and the ability of dacarbazine treatment to release some melanin from the melanoma cells. For this purpose 10 mg/mL dacarbazine in citrate buffer with pH ˜5.5 was prepared by dissolving 100 mg dacarbazine (Sigma) in 9.5 mL citrate buffer, pH 3.9 and 0.5 mL 0.1 M HCl. Five mice with A2058 tumors were treated for 5 days IP with 50 mg/kg dacarbazine (1.1 mg/mouse). Three days after completion of DTIC treatment, two mice were sacrificed, their tumors removed, fixed in ethanol/buffered formalin, cut into 5 μm slices and analyzed histologically for the presence of melanin by staining with hematoxylin and eosin (H&E), iron staining or by melanin bleach. The slides were viewed under 400× magnification in polarized light.

[2] = tested on: A2058 human melanoma; test: chemotherapy, RIT and combination of chemotherapy and RIT in A2058 melanoma-bearing mice; type: in vivo; conditions: FIG. 4A
Experimental: Animal model and therapy studies. All animal studies were carried out in accordance with the guidelines of the Institutes for Animal Studies at the Albert Einstein College of Medicine. For RIT studies, 6-12 week-old female nude mice were implanted subcutaneously with 8×10^6 A2058 human melanoma cells into the right flank and used for therapeutic experiments 12 days after tumor volumes were approximately 0.15 cm^3 (0.02-0.4 cm^3).
For the experiment comparing the efficacy of chemotherapy, RIT and combination of chemotherapy, and RIT in A2058 melanoma-bearing mice, mice were inoculated with A2058 melanoma cells, randomized into groups of five after tumor volumes reached 0.15 cm^3 (0.02-0.4 cm^3). On Day 0 the treatment of groups #1 and 2 with 50 mg/kg DTIC for 5 consecutive days IP was initiated. Mice in group #3 received a single IP injection of 1 mCi ^188Re-6D2 mAb on Day 0. Twenty-four hrs after completion of pre-treatment with DTIC (Day 6), mice in group #2 received single IP dose of 1 mCi ^188Re-6D2 mAb. Group #4 was given PBS IP on Day 0.
Statistical analysis. The Wilcoxon rank sum test was used to compare tumor sizes between different treatment groups in therapy studies. Differences were considered statistically significant when P values were <0.05.

[3] = tested on: A2058 tumor metabolism; test: ^18F-FDG microPET of RIT or chemotherapy treated melanoma-bearing mice; type: in vivo; conditions: re-imaged one week after initial PET scan; FIG. 5
Experimental: MicroPositron Emission Tomography (microPET) of RIT or chemotherapy treated melanoma-bearing mice. To understand the effects of RIT with melanin-binding mAbs and chemotherapy with DTIC on A2058 tumor metabolism, microPET was performed of mice treated with DTIC or with RIT. For this purpose 6-7 mm in diameter tumor-bearing mice were fasted for 3 hrs, then placed in an anesthesia chamber with 1.5% isoflurane-oxygen mixture. Anesthesia continued through the IV injection, during a 1 hr uptake and through the imaging portion of the procedure. Each mouse was placed on a heating pad before scanning to maintain normal body temperature. Mice were injected via tail-vein with 11.1 to 14.8 MBq (300 to 400 μCi) ^18F-FDG and 1 hr later imaged in an R4 microPET scanner manufactured by CTI Concorde. The Full Width at Half Maximum for the R4 is about 2.1 mm with a field of view of 120 mm and a depth of field of 78 mm. Images were acquired for 10 minutes with a lower level discrimination of 350 keV and upper level discrimination of 650 keV. The timing window was set to 6 nsec. All of the default settings were selected during the histogram process. […] Data corrected for dead time counting losses, arc correction, random coincidences and the measured uniformity of detector responses (i.e. normalized) but not corrected for attenuation or scatter. […]

[4] = tested on: metastatic melanoma; conditions: patients with metastatic melanoma; Sun and Schuchter, 2001; cited from earlier work
[5] = tested on: mouse melanoma models; conditions: 50 mg/kg/day×5 days; Fodstad et al. 1980; cited from earlier work

CN(C)N=Nc1[nH]cnc1C(N)=O [DTIC, 5-(3,3-dimethyl-1-triazeno)imidazole-4-carboxamide]
release of melanin from tumor cells (histology) [1]: releases some melanin from the cells
tumor growth from day 15 ([2]; compared with combined treatment or RIT alone, p=0.02): started to grow much faster
tumor growth up to Day 15 ([2]; early time points post-therapy, compared with RIT alone): more effective in impairing tumor growth than RIT alone
^18F-FDG uptake in tumors [3]: became less diffuse and concentrated in the center of the tumor
response rate [4]: 15% to 20%
tumor growth [5]: effectively slowed tumor growth
